Read-outs that look alike come from different tables or passages of the source.
How the values were obtained:
[1] = target: T1, Isolated Guinea Pig Atria (Cavia porcellus, UniProt H0W3H1); experiment: pA2 on isolated guinea pig atria; type: cell-based; conditions: for pA2, positive chronotropic / pA2, positive inotropic / Kb: isolated guinea pig atria; for Potency ratio (PR), positive chronotropic / Potency ratio (PR), positive inotropic: with respect to propranolol
T1 construct: Isolated Guinea Pig Atria; from tissue; host or cells: guinea pig atria (isolated organ)
Text: The determination of the pA2 is made from experiments in which a fixed concentration of the antagonist is used along with graded concentrations of an agonist acting on the same receptor. The presence of the antagonist shifts the agonist dose-response curve to the right.

[2] = tested on: heart rate and blood pressure; experiment: Heart rate and blood pressure changes of rats induced by guaiacoxypropanolamines; type: in vivo; conditions: 1.0 mg/kg iv, means ± SE (n = 8)
[3] = read-out: pA2, positive chronotropic (converted)
[4] = read-out: pA2, positive inotropic (converted)

T1 sequence (H0W3H1 1-470): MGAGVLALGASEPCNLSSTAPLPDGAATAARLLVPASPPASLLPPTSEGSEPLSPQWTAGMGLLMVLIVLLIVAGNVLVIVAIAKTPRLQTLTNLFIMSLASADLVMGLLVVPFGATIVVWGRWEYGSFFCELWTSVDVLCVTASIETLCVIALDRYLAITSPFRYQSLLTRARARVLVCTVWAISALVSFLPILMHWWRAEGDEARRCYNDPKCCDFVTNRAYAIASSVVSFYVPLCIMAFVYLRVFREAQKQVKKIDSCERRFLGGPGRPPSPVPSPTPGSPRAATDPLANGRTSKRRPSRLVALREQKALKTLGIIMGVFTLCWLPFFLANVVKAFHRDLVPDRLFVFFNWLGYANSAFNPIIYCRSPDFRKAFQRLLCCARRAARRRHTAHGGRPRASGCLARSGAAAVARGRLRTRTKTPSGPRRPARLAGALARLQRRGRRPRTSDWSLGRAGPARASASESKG

Row | Structure (SMILES) | pA2, positive chronotropic [1] | pA2, positive inotropic [1] | Potency ratio (PR), positive chronotropic [1] | Potency ratio (PR), positive inotropic [1] | Kb [1, 3] [µM] | Kb [1, 4] [µM] | change in BP ([2]; 5 min after dosing) [mmHg] | change in HR ([2]; 5 min after dosing) [beats/min] | change in BP ([2]; 10 min after dosing) [mmHg] | change in HR ([2]; 10 min after dosing) [beats/min] | change in BP ([2]; 15 min after dosing) [mmHg] | change in HR ([2]; 15 min after dosing) [beats/min] | change in BP ([2]; 30 min after dosing) [mmHg] | change in HR ([2]; 30 min after dosing) [beats/min] | change in BP ([2]; 60 min after dosing) [mmHg] | change in HR ([2]; 60 min after dosing) [beats/min]
1 | CCCCCCCCC(=O)NCc1ccc(OCC(O)CNC(C)CC)c(OC)c1 (centres unmarked) [NH-s-C4 H9, N-[4-o-(2-hydroxy-3-(sec-butylamino)propoxy)-3-methoxybenzyl]-nonamide] | – | – | 0.07 | 0.17 | 0.12 | 0.0224 | 4.11 ± 2.76 | -38.56 ± 11.30 | 4.89 ± 3.37 | -35.44 ± 12.46 | 3.33 ± 3.74 | -32.33 ± 11.96 | -0.88 ± 3.11 | -25.11 ± 9.49 | 1.22 ± 1.47 | -9.56 ± 7.03
2 | CCCCCCCCC(=O)NCc1ccc(OCC(O)CNC(C)(C)C)c(OC)c1 (centres unmarked) [NH-t-C4 H9, N-[4-o-(2-hydroxy-3-(tert-butylamino)propoxy)-3-methoxybenzyl]-nonamide] | – | – | 0.19 | 0.24 | 0.0398 | 0.0158 | 3.13 ± 5.66 | -45.00 ± 4.20 | 3.38 ± 5.08 | -37.75 ± 4.44 | 2.38 ± 5.41 | -29.50 ± 5.31 | 1.25 ± 5.45 | -24.88 ± 8.47 | 4.63 ± 3.51 | -18.50 ± 5.13
3 | C=CCNCC(O)COc1ccc(CNC(=O)CCCCCCCC)cc1OC (centres unmarked) [NHC3 H5, N-[4-0-(2-hydroxy-3-(allylamino)propoxy)-3-methoxybenzyl]-nonamide] | – | – | 0.08 | 0.15 | 0.0933 | 0.0251 | -1.56 ± 2.03 | -36.78 ± 11.25 | -2.67 ± 1.96 | -28.22 ± 9.00 | -1.89 ± 2.04 | -19.89 ± 9.26 | -1.11 ± 2.62 | -5.00 ± 8.72 | 4.78 ± 4.96 | -7.56 ± 4.14
4 | CCCCCCCCC(=O)NCc1ccc(OCC(O)CNC)c(OC)c1 (centres unmarked) [NHCH3, N-[4-o-(2-hydroxy-3-(methylamino)propoxy)-3-methoxybenzyl]-nonamide] | – | – | 0.03 | 0.05 | 0.295 | 0.0741 | -1.11 ± 2.31 | -34.56 ± 6.79 | -0.22 ± 2.10 | -17.33 ± 5.31 | -0.56 ± 1.65 | -12.22 ± 4.33 | 1.89 ± 2.14 | 14.56 ± 7.73 | 0.78 ± 1.37 | 4.78 ± 4.37

Second part, led by results:

Row | pA2, positive chronotropic [1] | pA2, positive inotropic [1] | Potency ratio (PR), positive chronotropic [1] | Potency ratio (PR), positive inotropic [1] | Kb [1, 3] [µM] | Kb [1, 4] [µM] | Structure (SMILES) | change in BP ([2]; 5 min after dosing) [mmHg] | change in HR ([2]; 5 min after dosing) [beats/min] | change in BP ([2]; 10 min after dosing) [mmHg] | change in HR ([2]; 10 min after dosing) [beats/min] | change in BP ([2]; 15 min after dosing) [mmHg] | change in HR ([2]; 15 min after dosing) [beats/min] | change in BP ([2]; 30 min after dosing) [mmHg] | change in HR ([2]; 30 min after dosing) [beats/min] | change in BP ([2]; 60 min after dosing) [mmHg] | change in HR ([2]; 60 min after dosing) [beats/min]
5 | 7.19 ± 0.02 | 7.55 ± 0.04 | 0.12 | 0.14 | – | – | CCCCCCCCC(=O)NCc1ccc(OCC(O)CNCCCCC)c(OC)c1 (centres unmarked) [NH-n-C5 H11, N-[4-o-(2-hydroxy-3-(n-pentylamino)propoxy)-3-methoxybenzyl]-nonamide] | -4.67 ± 1.71 | -25.11 ± 5.81 | -1.67 ± 1.87 | -23.33 ± 2.41 | -0.88 ± 3.00 | -10.22 ± 2.38 | 3.67 ± 2.66 | -5.78 ± 7.89 | 2.44 ± 1.96 | -6.56 ± 4.38
6 | – | – | 0.01 | 0.06 | 0.933 | 0.0661 | CCCCCCCCC(=O)NCc1ccc(OCC(O)CNCCCCCC)c(OC)c1 (centres unmarked) [NH-n-C6 H13, N-[4-o-(2-hydroxy-3-(n-hexylamino)propoxy)-3-methoxybenzyl]-nonamide] | -2.22 ± 1.42 | -35.56 ± 8.71 | -2.89 ± 1.61 | -24.11 ± 3.31 | -4.44 ± 2.93 | -14.89 ± 7.10 | -2.11 ± 2.77 | -12.67 ± 6.59 | 1.89 ± 1.13 | -8.00 ± 5.64
7 | 6.93 ± 0.09 | 7.27 ± 0.09 | 0.07 | 0.07 | – | – | CCCCCCCCC(=O)NCc1ccc(OCC(O)CNCC)c(OC)c1 (centres unmarked) [NHC2 H5, N-[4-o-(2-hydroxy-3-(ethylamino)propoxy)-3-methoxybenzyl]-nonamide] | 7.44 ± 3.16 | -38.33 ± 5.94 | 2.56 ± 2.56 | -32.22 ± 5.36 | 1.11 ± 1.78 | -28.00 ± 7.02 | -2.44 ± 3.05 | -21.11 ± 8.75 | 1.88 ± 1.62 | 2.56 ± 11.66

From US5804603A, “Synthesized β-adrenergic blockers derivatives of guaiacol” (National Science Council, priority 1995, dated 1998)
